Source: PubChem BioAssay (NCI)
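Test compounds were applied to cells in 96-well plates for 48 hours at 5 doses. TGI is the concentration that stops growth completely.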

Experiments:
Test in all cases: NCI-60 cell line screen, 48 h
[1] = test system: SNB-19 CNS
[2] = test system: OVCAR-4 ovarian
[3] = test system: CAKI-1 renal
[4] = test system: MCF7 breast
[5] = test system: SK-MEL-5 melanoma
[6] = test system: A498 renal
[7] = test system: HOP-92 NSCLC
[8] = test system: SN12C renal
[9] = test system: UO-31 renal
[10] = test system: PC-3 prostate
[11] = test system: M14 melanoma
[12] = test system: K-562 leukemia
[13] = test system: SK-OV-3 ovarian
[14] = test system: MOLT-4 leukemia
[15] = test system: NCI-H226 lung
[16] = test system: RPMI-8226 leukemia
[17] = test system: MDA-N
[18] = test system: HS 578T breast
[19] = test system: SF-539 CNS
[20] = test system: UACC-257 melanoma
[21] = test system: SR leukemia
[22] = test system: HCT-15 colon
[23] = test system: OVCAR-3 ovarian
[24] = test system: SW-620 colon
[25] = test system: COLO 205 colon
[26] = test system: HOP-62 NSCLC
[27] = test system: 786-0 renal
[28] = test system: HCT-116 colon
[29] = test system: SK-MEL-2 melanoma
[30] = test system: CCRF-CEM leukemia
[31] = test system: OVCAR-5 ovarian
[32] = test system: A549 NSCLC
[33] = test system: ACHN renal
[34] = test system: HT29 colon
[35] = test system: U251 CNS
[36] = test system: SNB-75 CNS
[37] = test system: NCI-H460 lung
[38] = test system: NCI-H23 lung
[39] = test system: NCI/ADR-RES ovarian
[40] = test system: LOX IMVI melanoma
[41] = test system: KM12 colon
[42] = test system: RXF 393 renal
[43] = test system: SF-295 CNS
[44] = test system: TK-10 renal
[45] = test system: MDA-MB-231 breast
[46] = test system: MDA-MB-435
[47] = test system: DU-145 prostate
[48] = test system: SK-MEL-28 melanoma
[49] = test system: UACC-62 melanoma
[50] = test system: T-47D breast
[51] = test system: SF-268 CNS
[52] = test system: IGROV1 ovarian
[53] = test system: EKVX NSCLC
[54] = test system: MALME-3M melanoma
[55] = test system: HCC-2998 colon
[56] = test system: OVCAR-8 ovarian
[57] = test system: HL-60(TB) leukemia
[58] = test system: BT-549 breast
[59] = test system: NCI-H522 lung

Cc1cn(C2OC(CO[Si](C)(C)C(C)(C)C)/C(=C\C#N)C2O[Si](C)(C)C(C)(C)C)c(=O)[nH]c1=O (stereo not drawn)
TGI [1]: > 100 µM
TGI [2]: > 100 µM
TGI [3]: > 100 µM
TGI [4]: > 100 µM
TGI [5]: > 100 µM
TGI [6]: > 100 µM
TGI [7]: > 100 µM
TGI [8]: > 100 µM
TGI [9]: > 100 µM
TGI [10]: > 100 µM
TGI [11]: > 100 µM
TGI [12]: > 100 µM
TGI [13]: > 100 µM
TGI [14]: > 100 µM
TGI [15]: > 100 µM
TGI [16]: > 100 µM
TGI [17]: > 100 µM
TGI [18]: > 100 µM
TGI [19]: 97.1 µM
TGI [20]: > 100 µM
TGI [21]: > 100 µM
TGI [22]: > 100 µM
TGI [23]: > 100 µM
TGI [24]: > 100 µM
TGI [25]: > 100 µM
TGI [26]: > 100 µM
TGI [27]: > 100 µM
TGI [28]: > 100 µM
TGI [29]: 37.1 µM
TGI [30]: > 100 µM
TGI [31]: > 100 µM
TGI [32]: > 100 µM
TGI [33]: > 100 µM
TGI [34]: > 100 µM
TGI [35]: > 100 µM
TGI [36]: > 100 µM
TGI [37]: > 100 µM
TGI [38]: > 100 µM
TGI [39]: > 100 µM
TGI [40]: > 100 µM
TGI [41]: > 100 µM
TGI [42]: 92 µM
TGI [43]: 83.5 µM
TGI [44]: > 100 µM
TGI [45]: > 100 µM
TGI [46]: > 100 µM
TGI [47]: > 100 µM
TGI [48]: > 100 µM
TGI [49]: > 100 µM
TGI [50]: > 100 µM
TGI [51]: > 100 µM

C/C(Cl)=N/OC(=O)Nc1ccc(F)c([N+](=O)[O-])c1
TGI [1]: 37.3 µM
TGI [2]: 40.7 µM
TGI [3]: 3.69 µM
TGI [4]: > 49 µM
TGI [5]: 29.2 µM
TGI [6]: 39 µM
TGI [7]: > 72.5 µM
TGI [8]: 19.4 µM
TGI [9]: 20.5 µM
TGI [10]: 33.2 µM
TGI [11]: > 48 µM
TGI [12]: > 23.9 µM
TGI [13]: 45 µM
TGI [14]: 3.9 µM
TGI [15]: 70.1 µM
TGI [52]: 17.9 µM
TGI [53]: 33.1 µM
TGI [54]: 8.88 µM
TGI [16]: > 25.7 µM
TGI [55]: > 100 µM
TGI [17]: 35.1 µM
TGI [18]: 16.4 µM
TGI [19]: > 100 µM
TGI [20]: 53.2 µM
TGI [21]: 30.7 µM
TGI [22]: 12.6 µM
TGI [23]: 35.8 µM
TGI [56]: 31.7 µM
TGI [24]: 25.6 µM
TGI [25]: 5.38 µM
TGI [26]: 33.9 µM
TGI [27]: 16.5 µM
TGI [28]: > 30.8 µM
TGI [29]: 32.2 µM
TGI [31]: > 53.4 µM
TGI [32]: > 58.7 µM
TGI [57]: 6.02 µM
TGI [33]: 8.23 µM
TGI [34]: > 52.7 µM
TGI [35]: 41.9 µM
TGI [36]: 25 µM
TGI [37]: > 100 µM
TGI [38]: 48.5 µM
TGI [39]: > 100 µM
TGI [40]: 18.5 µM
TGI [41]: 33.8 µM
TGI [58]: 29.8 µM
TGI [42]: 25.4 µM
TGI [43]: > 100 µM
TGI [44]: 13.2 µM
TGI [45]: 37.4 µM
TGI [46]: 30.8 µM
TGI [47]: 33 µM
TGI [48]: 37.1 µM
TGI [49]: > 63.2 µM
TGI [51]: 32.8 µM
TGI [59]: 4.27 µM
